In publication PMC4912613, “A broad analysis of resistance development in the malaria parasite” (Nature Communications, 2016):

Assays:
[1] = system: Stage 5 gametocytes from P. falciparum NF54; assay: Late-stage (stage V) gametocyte survival assay, MitoTracker; format: cell-based, Plasmodium falciparum; settings: for EC50: Plasmodium falciparum, P. falciparum NF54, 72 h, read-out: Stage 5 Gametocyte EC50; for EC50 fold shift compared to asexual stage: Stage 5 Gametocyte EC50: gametocyte EC50 / 3D7 EC50
How it was run: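 Synchronized P. falciparum NF54 stage V gametocytes were exposed to compound (1.25 μM or 12.5 μM) for 72 h. MitoTracker Red CMXRos (500 nM final) was then added with saponin to lyse RBCs, and plates were imaged by high-content fluorescence. The readout was the number of metabolically active gametocytes per well.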

[2] = system: ATQ-R5 (cytb F267V, parent 3D7); assay: Cross-resistance EC50 assay, ATQ-R5; format: cell-based, Plasmodium falciparum; settings: Plasmodium falciparum, 3D7; SYBR green 72 hour assay; asynchronized parasites; 96-well or 1536-well format; ATQ-R5
Description: (§1) To evaluate potential overlapping activity against known antimalarial drug targets, we performed dose-response studies with each compound against our assembled set of drug-resistant lines and their corresponding parents, in an asexual blood stage proliferation assay (Table 1). Comparisons were made to the drug-sensitive strain 3D7 when a parent was unavailable (TM90C2A, W2 and Dd2). As laboratories conducted EC50 assays with different strains and protocols, all comparisons were made between assays from the same laboratory and under the same assay conditions. Compounds displaying >5-fold EC50 shifts relative to the parent or sensitive strain were flagged as having potentially non-novel targets. Average fold shifts per strain ranged from 0.82 to 2.34, with a median of 1.23 indicating there was not common resistance to any one resistant clone. No resistance patterns were observed when classifying the compounds based on chemical structure, but this was not surprising given the diversity of compounds chosen. On the other hand, given that these confirmed compounds were derived from larger unconfirmed hit lists to which some filtration criteria may have been applied (for example, elimination of obvious dihydrofolate reductase inhibitors[32]), some[10][11][12][13] pre-existing bias may exist in the set. […]
(§2) Alternatively, a SYBR Green-based proliferation approach was used for the 72-h assay, as previously described. Briefly, a culture of either synchronized or asynchronous parasitized RBCs (0.3% parasitemia and 4% haematocrit) in screening medium (identical to supplemented medium above except no serum was added) was exposed to serial drug dilutions. Plates were incubated at 37 °C and gassed with 93% N2, 4% CO2 and 3% O2 for 72 h. Following incubation, 10 × SYBR Green I (Invitrogen; supplied in 10,000 × concentration) in lysis buffer ([…], 5 mM EDTA, 0.16% Saponin wt per vol and 1.6% Triton X vol per vol) was added to the wells and the plates were incubated overnight at room temperature before plate reading. EC50 assays were repeated three times, taking the average EC50 value from each assay set, and removing any outliers using a single iteration of Grubbs' test, eliminating values with z-scores above the critical z-value (α=0.05). The raw EC50 values for synchronized parasites assayed in a 384-well format are listed in Supplementary Data 4. The raw EC50 values for asynchronous parasites assayed in a 96 or 1536-well format are listed in Supplementary Data 5.
(§3) EC50 values for each strain were compared with those of the corresponding parent strain to determine fold-shift changes and identify resistance. To minimize the cause variance between assays, all comparisons were conducted between strains assayed under identical conditions. A one-way ANOVA followed by a Dunnet's post-test was conducted in GraphPad Prism to identify significant changes between the parent and resistant strain.

[3] = system: GNF156R (PfCARL L830V, S1076I and M81I, parent Dd2); assay: Cross-resistance EC50 assay, GNF156R; format: cell-based; settings: Plasmodium falciparum, SYBR green 72 hour assay, asynchronized parasites, 96-well or 1536-well format
Description: as §1, §2, §3

[4] = system: GNF449-R2 (PfATP4 I203L and P990R, parent Dd2); assay: Cross-resistance EC50 assay, GNF449-R2; format: cell-based; settings: Plasmodium falciparum, SYBR green 72 hour assay, asynchronized parasites, 96-well or 1536-well format
Description: as §1, §2, §3

[5] = system: TM90C2A (DHFR, folate pathway; compared with 3D7); assay: Cross-resistance EC50 assay, TM90C2A; format: cell-based; settings: Plasmodium falciparum, 48 h, read-out: TM90C2A (3D7 Parent) Average EC50
How it was run: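 Readout: ³H-hypoxanthine incorporation (48 h; 2 μM artesunate as negative control) or SYBR Green I fluorescence after overnight lysis (72 h, serum-free medium, synchronized or asynchronous cultures). Values are EC50s, compared as fold shift with parent or 3D7; >5-fold flagged.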

PfCRT-Q352R (parent Dd2) = assay: Cross-resistance EC50 assay, PfCRT-Q352R; format: cell-based; settings: Plasmodium falciparum, DD2, 72 h, read-out: PfCRT:Q352R (Dd2 Parent) Average EC50
Description: as §1, §2, §3

With `OC(CNC1CCCCC1)Cn1c2ccc(I)cc2c2cc(I)ccc21` (centres unmarked) [MMV665882] the EC50 [1] was 323 nM, the “EC50 fold shift compared to asexual stage: Stage 5 Gametocyte EC50” value (shortened to “EC50 fold shift”) [1] was 4.44 and the EC50 [2] was 0.026 µM. The EC50 [3] was 0.068 µM, the EC50 [4] was 0.028 µM and the EC50 [5] was 207 nM. The EC50 (PfCRT-Q352R (parent Dd2)) was 47 nM.

With `O=C(Nc1ccccc1O)c1ccc(Oc2cccc(C(=O)Nc3ccccc3O)c2)cc1` [MMV665888] the EC50 [1] was 2980 nM, the “EC50 fold shift” value [1] was 2.46 and the EC50 [2] was 0.989 µM. The EC50 [3] was 0.67 µM, the EC50 [4] was 0.972 µM and the EC50 [5] was 1040 nM. The EC50 (PfCRT-Q352R (parent Dd2)) was 683 nM.

`COc1ccc(C(=O)C2CC2c2ccc(Cl)cc2)cc1` (centres unmarked) [MMV665924] was tested, and the EC50 [1] was over 1250 nM, the “EC50 fold shift” value [1] was over 1.5 and the EC50 [2] was 3.63 µM. For the same compound, the EC50 [3] was 1.17 µM, the EC50 [4] was 1.29 µM and the EC50 [5] was 1600 nM. It also gave an EC50 (PfCRT-Q352R (parent Dd2)) of 1400 nM.

In the case of `CCC(C)NCC(O)(c1ccc(Cl)cc1)c1ccc(Cl)cc1` (centres unmarked) [MMV665928], the EC50 [1] is reported as over 1250 nM, the “EC50 fold shift” value [1] is reported as over 2.5 and the EC50 [2] is reported as 0.074 µM. The EC50 [3] was 0.682 µM, the EC50 [4] was 0.16 µM and the EC50 [5] was 432 nM. The EC50 (PfCRT-Q352R (parent Dd2)) was 486 nM.

With `O=C(Nc1ccsc1C(=O)NC1CCCCC1)c1ccc(F)cc1` [MMV665939] the EC50 [1] was over 1250 nM, the EC50 [2] was 3.43 µM and the EC50 [3] was 1.28 µM. It also gave an EC50 [4] of 2.21 µM, an EC50 [5] of 1350 nM and an EC50 (PfCRT-Q352R (parent Dd2)) of 1140 nM.

For `Nc1ccc(-c2nc3cc(Cc4ccc5[nH]c(-c6ccc(N)cc6)nc5c4)ccc3[nH]2)cc1` [MMV665943], the EC50 [1] was 407 nM, the “EC50 fold shift” value [1] was 1.29 and the EC50 [2] was 0.042 µM. The EC50 [3] was 0.399 µM, the EC50 [4] was 0.588 µM and the EC50 [5] was 298 nM. The EC50 (PfCRT-Q352R (parent Dd2)) was 407 nM.

With `O=C(NC(c1ccccc1)c1ccc2cccnc2c1O)c1ccccc1` (centres unmarked) [MMV666080] the EC50 [1] was 7210 nM, the “EC50 fold shift” value [1] was 8.53 and the EC50 [2] was 0.756 µM. It also gave an EC50 [3] of 0.822 µM, an EC50 [4] of 1.11 µM and an EC50 [5] of 860 nM. The EC50 (PfCRT-Q352R (parent Dd2)) was 545 nM.

`COc1cc(C(=O)ON=C(N)Cc2cccc3ccccc23)cc(OC)c1OC` [MMV666687] showed an EC50 [1] of 4340 nM, an EC50 [2] of 0.914 µM and an EC50 [3] of 0.611 µM. For the same compound, the EC50 [4] was 0.813 µM, the EC50 [5] was 180 nM and the EC50 (PfCRT-Q352R (parent Dd2)) was 326 nM.

With `c1cc(-c2cnc3ccc(-c4ccc(N5CCOCC5)cc4)nn23)ccn1` [MMV668311] the EC50 [1] was 879 nM, the “EC50 fold shift” value [1] was 18.31 and the EC50 [2] was 0.029 µM. It also gave an EC50 [3] of 0.031 µM, an EC50 [4] of 0.03 µM and an EC50 [5] of 86 nM. It also gave an EC50 (PfCRT-Q352R (parent Dd2)) of 63 nM.

`c1cncc(-c2cc(N3CCC(CN4CCOCC4)CC3)nc(-c3ccncc3)n2)c1` [MMV668399] was tested, and the EC50 [1] was over 12500 nM, the EC50 [2] was 0.339 µM and the EC50 [3] was 0.827 µM. It also gave an EC50 [4] of 0.938 µM, an EC50 [5] of 86 nM and an EC50 (PfCRT-Q352R (parent Dd2)) of 70 nM.

`CN(C)CCCNCc1ccc(-c2ccc(Cl)c(Cl)c2)o1` [MMV673964] was tested, and the EC50 [1] was 1130 nM, the “EC50 fold shift” value [1] was 1.86 and the EC50 [2] was 0.108 µM. It also gave an EC50 [3] of 1.33 µM, an EC50 [4] of 1.05 µM and an EC50 [5] of 569 nM. For the same compound, the EC50 (PfCRT-Q352R (parent Dd2)) was 552 nM.
